Reference: US20230068010A1, “FORMULATION OF INSECTICIDAL MIXTURES COMPRISING GLYCOL ETHER SOLVENTS” (Bayer Aktiengesellschaft, priority 2019, published 2023)

Test: Cuticle penetration test
Assay type: in vitro ADME, apple tree
Text: This test measures the penetration of active ingredients through enzymatically isolated cuticles of apple tree leaves.
Leaves that have been cut off apple trees in the developed state and isolated by the method described in Schönherr and Riederer (Schönherr, J., Riederer, M. (1986)) are used. Only the cuticles of the top sides of the leaves that are free of stomata and hair are used further.
For membrane transport studies, the cuticular membranes thus obtained are placed into stainless steel diffusion cells (=transport chambers). For this purpose, the cuticles are placed with tweezers onto the middle of the silicone grease-smeared edges of the diffusion cells and sealed with a likewise greased ring. The arrangement is chosen such that the morphological outside of the cuticles is directed outward, i.e. toward the air, while the original inside faces the inside of the diffusion cell. The diffusion cells are filled with water or with a mixture of water and solvent and buffered to the physiologically relevant pH of 5.5. The medium in the diffusion cells is supposed to simulate the apoplast, i.e. the natural absorption medium within the leaf. This method is of good suitability for systemic and mechanistic studies with the aim of understanding the effect of the formulations, adjuvants and solvents on penetration of the crop protection compositions.
The active ingredient concentration corresponds to the field application rate customary in practice. For preparation of the spray liquor the corresponding ingredients in the given amounts are given into tap water and homogenized by mixing.
After the spray liquors have been applied, the water is allowed to evaporate in each case, then the chambers are inverted and they are placed into thermostated tanks, wherein air at a defined air humidity and temperature is blown onto the outside of the cuticles in each case. The penetration that sets in therefore takes place at a relative air humidity of 56% and a set temperature of 25° C. At regular intervals, an autosampler is used to take samples and the content of penetrated active ingredient is measured by means of HPLC. The numbers reported are average values from 5 to 10 individual measurements in each case.

In the case of `O=C1C=C(N(Cc2ccc(Cl)nc2)CC(F)F)CO1` [Flupyradifurone], the “Penetration after 24 h” value (entry 1: spray solution 0.1 g/L Compd I-2 + 0.5 g/L flupyradifurone, no additives, 25° C., 56% r.h.) was 5.1%, the “Penetration after 24 h” value (entry 1: spray solution 0.1 g/L Compd I-2 + 0.5 g/L flupyradifurone, no additives, 25° C., 56% r.h., listed as flupyradifurone) was “barely any, if any, cuticle penetration” and the “Penetration after 24 h” value (entry 2: 0.1 g/L Compd I-2 + 0.5 g/L flupyradifurone + DAHP 1.6 g/L, 25° C., 56% r.h.) was 29.2%. For the same compound, the “Penetration after 24 h” value (entry 3: 0.1 g/L Compd I-2 + 0.5 g/L flupyradifurone + Antarox B/848 1.3 g/L, 25° C., 56% r.h.) was 73%, the “Penetration after 24 h” value (entry 4: 0.1 g/L Compd I-2 + 0.5 g/L flupyradifurone + Antarox B/848 1.3 + DAHP 1.6 g/L, 25° C., 56% r.h.) was 82.8% and the “Penetration after 24 h” value (entry 5: as entry 4 + 1.8 g/L Propylenglycolmonomethylether (B) + 1.8 g/L Propylenglycol (C)) was 87.2%. For the same compound, the “Penetration after 24 h” value (entry 6: as entry 4 + 1.8 g/L Propylenglycolmonomethylether (B) + 1.8 g/L Dipropylenglycol (D)) was 100%, the “Penetration after 24 h” value (entry 7: as entry 4 + 2.1 g/L Dipropylenglycolmonomethylether (A) + 1.4 g/L Propylenglycolmonomethylether (B)) was 100% and the “Penetration after 24 h” value (entry 8: as entry 4 + 2.5 g/L Dipropylenglycolmonomethylether (A) + 1.2 g/L Propylenglycol (C)) was 95%.
